{"source": "patent US7179821B2", "about": "“Method of treating of demyelinating diseases or conditions” (Aventis Pharmaceuticals Inc., priority 2001, dated 2007)", "key": {"[1]": {"system": "mechanical hyperalgesia after nerve ligation", "assay": "Neuropathic pain model, spinal nerve constriction, von Frey paw withdrawal threshold", "type": "in vivo, rat", "details": "20 mg/kg po, tested 3 hours after dosing", "method": "Adult male Sprague-Dawley rats received unilateral constriction of the L6 nerve to produce chronic nerve injury. Following recovery from surgery (3–7 days post operative) animals were tested for paw withdrawal threshold to mechanical stimuli applied to the affected paw. This was determined by the application of calibrated von Frey monofilaments to the plantar surface of each hindpaw. Only animals with a 50% decrease in withdrawal threshold in the ligated paw were employed in the study, and were randomly assigned to one of 6 groups: three groups receiving one of three doses of HP 184 (0.3, 3 and 20 mg/kg, po), a fourth group receiving a single dose of another compound referred to MDL (10 mg/kg, ip), a fifth group receiving gabapentin (90 mg/kg, sc), and a sixth group receiving vehicle only. Behavioral testing occurred 45 minutes following the gabapentin (90 mg/kg, sc), and 3 hours following the HP 184, MDL, and vehicle. A difference score between the ligated and non-ligated paw withdrawal thresholds is calculated for each animal, and these differences were subjected to ANOVA with group as the main factor. […] Analysis was between/within repeated measures ANOVA. […]"}, "[2]": {"details": "micromolar brain concentrations one hour after ip administration of 30 mg/kg in rats; cited from earlier work"}, "[3]": {"system": "NO production", "assay": "LPS-induced NO production in mice, plasma nitrate by Griess assay", "type": "in vivo, mouse", "details": "30 mg/kg ip 30 minutes prior to LPS 3 mg/kg ip, plasma 5 hours after LPS", "method": "Mice were injected with 30 mg/kg HP 184 (ip) 30 minutes prior to LPS (3 mg/kg, ip). Mice were sacrificed 5 hours after LPS injection, and plasma collected. Nitrate levels were determined by the Griess assay. Groups were composed of 9–10 mice each."}, "[4]": {"system": "mouse pMCAO stroke model", "assay": "Mouse pMCAO stroke model, infarct volume", "type": "in vivo", "details": "−60 min (one hour prior to occlusion), infarct volume 24 hours later, vs vehicle treated mice", "method": "Methods: The experimental procedure was based on the method of Bachauβ et al (1992). Male CD-1 mice weighing 35–40 g were anaesthetized with chloral hydrate (400 mg/kg). Under an operating microscope, a 3 mm vertical skin incision was made 2 mm behind the right orbit. The temporal muscle was deflected and a small craniotomy carried out to expose the dura. The dura was incised and deflected and the distal part of the right […] exposed. The artery was occluded upstream to the main bifurcation by bipolar electroagulation with fine forceps. Infarct volume was measured 24 hours later using 2% triphenyltetrazolium chloride solution. In this experimental paradigm, HP 184 was orally administered to non-fasted mice (10 per group) one hour prior to occlusion. Infarct volume reduction was based on comparison to 1% acetic acid, vehicle, treated mice."}, "[5]": {"system": "photothrombotic cerebral lesion", "assay": "Edema after photothrombotic cerebral lesion in the rat", "type": "in vivo", "method": "Method: Male Sprague Dawley rats (180–200 g bw) were anaesthetized with chloral hydrate (400 mg/kg ip) and placed in a stereotaxic apparatus. The skin was opened to reveal the skull and a cold light (Bioblock 150 W) was placed in contact with the right side of the skull forward of lambda. Bengal rose dye (10 mg/kg iv in saline) was administered intravenously and illumination of the skull started immediately and continued for 5 minutes. The skin was then sutured closed over the skull and the animal returned to its cage. Twenty-four hours after the photothrombotic lesion animals received HP184 made up in 1% tween in water by intravenous route at 0, 10 or 20 mg/kg body weight in a volume of 5 ml/kg. One hour later, animals were killed by decapitation and their brains removed (see appendix for protocol). Core samples were taken at the site of the lesion, and contralateral to the lesion, using a 6 mm diameter cork borer. Water content was determined by wet weight of tissue/dry weight of tissue and edema expressed as % excess water on lesioned sample compared with sample from contralateral hemisphere for each rat."}, "[6]": {"system": "demyelinated area at the moderate compression injury site", "assay": "Histological study of spinal cords, demyelinated area (luxol fast blue)", "type": "in vivo, rat", "method": "A study to test whether the treatment with HP184 affected the amount of myelin in rats with moderate long term spinal cord crush injury when administered long after spinal cord injury.\nThe spinal cords from rats described above in the assessment were used for this study.\n(50–60 mg/kg body weight, i.p.) and perfused transcardically—first with 100 mL 0.05M phosphate buffed saline (PBS) containing 0.1% heparin, followed by 300–500 mL of 4% paraformaldehyde (PFA). Segments T9 to L1 of the spinal cords were taken out, then cryo-protected in 30% sucrose solution and frozen at −70° C. in 10.24% polyvinyl alcohol and 4.26% polyethylene glycol.\nA segment of each cord including the lesion site plus 10 mm rostral and caudal to the lesion site was embedded in Tissue Tek medium. Serial sections were cut longitudinally at 20 μm intervals on a cryostat. Every third section was stained with luxol fast blue for myelin. The evaluation was performed by observers blinded as to treatment, on coded slides. Sections were examined under a light microscope for the extent of demyelination (the area without luxol fast blue staining).\nFor determinations of the maximal demyelinated area of the cord, the whole section was digitized on photographs using a Zeiss microscope. The extent of demyelination was measured at the lesion center using a computerized Bioquant BQ-TCW98 image analysis progrem by an investigator who was blind to treatment group.\nStatistical analysis was performed on a Macintosh computer using GB-Stat ppc 6.5.2. The histological results were analyzed by the Kruskal-Wallis nonparametric analysis of variance (ANOVA). Post hoc comparisons were made using Mann-Whitney U tests."}}, "note": "Where “and” joins values, the source holds several entries; their conditions need not be identical. Equal entries are not always repeated."}
{"smiles": "CCCN(c1ccncc1F)n1cc(C)c2ccccc21", "note": "[HP184, N-(3-fluoro-4-pyridinyl)-N-propyl-3-methyl-1H-indole-1-amine]", "values": [{"measurement": "mechanical hyperalgesia, difference of ligated minus normal paw withdrawal threshold, FIG. 10", "setting": "[1]", "result": "dose-response attentuation of L5 ligation mechanical hyperlagesia"}, {"measurement": "tolerability", "setting": "[2]", "result": "very well-tolerated"}, {"measurement": "NO production (plasma nitrate), FIG. 9", "setting": "[3]", "result": "inhibits NO production"}, {"measurement": "% infarct volume reduction mean sem", "setting": "[4]; 1 mg/kg po", "result": "21 ± 3", "unit": "%"}, {"measurement": "% infarct volume reduction mean sem", "setting": "[4]; 10 mg/kg po", "result": "40 ± 2.5 % and 32 ± 11 %"}, {"measurement": "edema (% excess water) at 25 h post lesion", "setting": "[5]; 10 mg/kg iv at 24 h post lesion", "result": "3.61 ± 0.23", "unit": "ns % excess water"}, {"measurement": "edema (% excess water) at 25 h post lesion", "setting": "[5]; 20 mg/kg iv at 24 h post lesion", "result": "3.20 ± 0.27", "unit": "% excess water"}, {"measurement": "reduction of the edema in the right cerebral cortex", "setting": "[5]; 20 mg/kg iv, one hour after administration, 25 hours after lesion", "result": 22, "unit": "%"}, {"measurement": "extent of demyelination, comparison of the groups", "setting": "[6]; 3 mg/kg po", "result": "showed the least demyelination"}, {"measurement": "myelin at the site of injury", "setting": "[6]; 3 mg/kg/day by oral gavage from 35 to 41 days after moderate crush injury", "result": "more myelin at the site of injury"}, {"measurement": "myelinated / demyelinated area at the crush center, FIG. 7", "setting": "[6]; HP184 0.3, 1 or 3 mg/kg po or 4-AP 0.6 mg/kg ip, days 35–42 after moderate crush", "result": "significantly greater myelinated area than that of saline controls"}]}
